The test system of assay [1] is CRE-dependent transcription in cultured rat hippocampal neuronal cells. Description: CRE-dependent transcription reporter gene (luciferase) assay in cultured rat hippocampal neuronal cells. To be noted: 8 hours treatment with different concentrations, FIGS. 5 and 6. Format: cell-based. As to the method: (§1) FIG. 5 indicates concentration-dependent effects of nobiletin on CRE-dependent transcription in cultured rat hippocampal neuronal cells. Cells were inoculated at a density of 8×10^4 cells/48 well plate followed by holding the plate for 10 to 14 days. […] Following transfection, the cells were treated for 8 hours with different concentrations of […]. Data is shown as the mean±S.E.M. (n=6). Asterisks (*) indicate a level of significance of p<0.05 relative to a control, while double asterisks (**) indicate a level of significance of p<0.001 relative to a control.
as §1, with “FIG. 6 indicates concentration-dependent” for “FIG. 5 indicates concentration-dependent”, “effects of 4-demethylated nobiletin on” for “effects of nobiletin on”
A pregnant SD rat (E18) was sacrificed by cervical dislocation under ether anesthesia. […]
Results obtained from the reporter gene assay were evaluated using one-way ANOVA (Tukey). […]

The subject of assay [2] is ERK phosphorylation in PC12D cells. Description: ERK phosphorylation in PC12D cells by western blotting (p-ERK relative to total ERK). Format: cell-based. To be noted: 15 minutes treatment, 30 μM nobiletin alone, FIG. 2. Here is the method:
Therefore, the effects of royal jelly and the effects of the combined used of royal jelly and nobiletin on ERK activity in PC12D cells, which are considered to be model cells of nerve cells, were examined by western blotting using as an indicator thereof the effects of water-soluble components of “Royal Jelly FD Powder” on ERK phosphorylation.
PC12D cells (Aichi Prefectural County Research Institute) were sub-cultured using Dulbecco's Modified Eagle Medium (DMEM) comprising heat inactivated (56° C., 30 minutes) 5% horse serum (HS: Gibco), 10% fetal calf serum (FCS: CELLect), penicillin (50 units/mL) and streptomycin ([…]). […]
PC12D cells were inoculated into a 35 mm dish at 1×10^6 cells/dish, and after culturing for 24 hours in a CO2 incubator, the cells were treated with drug. […] Moreover, after subjecting to ultrasonic treatment for 5 minutes in ice water, the lysate was centrifuged for 20 minutes at 14,000 rpm followed by recovery of the supernatant and quantification of the amount of protein. […] Bands were detected using the ECL method. […]
PC12D cells were inoculated into a 3.5 cm dish at 1×10^6 cells/dish and cultured overnight followed by treating for 15 minutes with low-serum medium comprising various drugs, and lysing the cells with cell lysis solution to obtain a cell extract. The expression levels of p-ERK and total ERK in the cell extract were then analyzed. […]

The record followed here is patent US20130129832A1, “COGNITIVE IMPAIRMENT AMELIORANT” (TOHOKU UNIVERSITY, priority 2008, published 2013).

Regarding `COc1cc(-c2cc(=O)c3c(OC)c(OC)c(OC)c(OC)c3o2)ccc1O` [4-demethylated nobiletin, 2-(4-hydroxy-3-methoxyphenyl)-5,6,7,8-tetramethoxychromen-4-one], the “effect on CRE-dependent transcription” value in assay [1] was “concentration-dependently promote CRE-dependent transcription in the same manner as nobiletin”. Turning to `COc1ccc(-c2cc(=O)c3c(OC)c(OC)c(OC)c(OC)c3o2)cc1OC` [nobiletin, 5,6,7,8,3′,4′-hexamethoxyflavone], the “effect on CRE-dependent transcription” value in assay [1] is on record as “concentration-dependently promote CRE-dependent transcription”. Moreover, the “effect on ERK phosphorylation” value in assay [2] is “only demonstrated weak promoting action of ERK phosphorylation when used alone”.
